Test: xn = mol fraction of the nth substance listed
Settings: 100 kPa

N[C@@H](Cc1c[nH]cn1)C(=O)O + CCCC[n+]1ccn(C)c1.F[B-](F)(F)F + O
viscosity [mPa·s]
Settings	293.15 K	298.15 K	303.15 K	308.15 K	313.15 K	318.15 K
x1 = 0.0002714, x2 = 0.0003602	1.038	0.925	0.843	0.759	0.701	0.646
x1 = 0.0002725, x2 = 0.0007201	1.07	0.959	0.876	0.797	0.744	0.689
x1 = 0.0002736, x2 = 0.00108	1.101	0.991	0.912	0.838	0.787	0.733
x1 = 0.0004522, x2 = 0.0003601	1.041	0.927	0.845	0.761	0.703	0.648
x1 = 0.000454, x2 = 0.00072	1.073	0.962	0.879	0.8	0.747	0.692
x1 = 0.0004559, x2 = 0.00108	1.104	0.994	0.915	0.841	0.79	0.736
x1 = 0.0006329, x2 = 0.00036	1.044	0.93	0.848	0.764	0.706	0.651
x1 = 0.0006355, x2 = 0.0007198	1.076	0.965	0.882	0.803	0.75	0.695
x1 = 0.0006382, x2 = 0.001079	1.107	0.997	0.918	0.844	0.793	0.739
x1 = 0.0008136, x2 = 0.00036	1.047	0.933	0.851	0.767	0.709	0.654
x1 = 0.000817, x2 = 0.0007197	1.079	0.968	0.885	0.806	0.753	0.698
x1 = 0.0008203, x2 = 0.001079	1.11	1	0.921	0.847	0.796	0.742
x1 = 0.0009942, x2 = 0.0003599	1.05	0.936	0.854	0.77	0.712	0.657
x1 = 0.0009983, x2 = 0.0007196	1.082	0.971	0.888	0.809	0.755	0.7
x1 = 0.001002, x2 = 0.001079	1.113	1.003	0.924	0.849	0.799	0.745
x1 = 0.001175, x2 = 0.0003598	1.053	0.939	0.856	0.772	0.714	0.659
x1 = 0.00118, x2 = 0.0007194	1.085	0.974	0.89	0.811	0.758	0.703
x1 = 0.001185, x2 = 0.001079	1.116	1.006	0.927	0.852	0.802	0.748
x1 = 0.001355, x2 = 0.0003598	1.056	0.942	0.859	0.775	0.716	0.661
x1 = 0.001361, x2 = 0.0007193	1.088	0.976	0.893	0.814	0.76	0.705
x1 = 0.001366, x2 = 0.001079	1.119	1.008	0.929	0.855	0.804	0.75
x1 = 0.001536, x2 = 0.0003597	1.059	0.944	0.862	0.777	0.719	0.663
x1 = 0.001542, x2 = 0.0007192	1.091	0.979	0.896	0.816	0.763	0.707
x1 = 0.001548, x2 = 0.001078	1.122	1.011	0.932	0.857	0.806	0.752
x1 = 0.001716, x2 = 0.0003596	1.062	0.947	0.864	0.779	0.721	0.666
x1 = 0.001723, x2 = 0.000719	1.094	0.982	0.898	0.818	0.765	0.71
x1 = 0.00173, x2 = 0.001078	1.125	1.014	0.934	0.86	0.808	0.753
